Results from patent publication US20260374766A1, “METHODS FOR TREATING CANCER” (Antares Therapeutics, Inc., priority 2022, published 2026).
Counter-ions that a name gives are not always drawn. Like-named read-outs stand apart in the source and are kept apart here.

How the values were obtained:
[1] = tested on: NUGC3 p53 Y220C; assay: Cell Proliferation Assay (CellTiter-Glo, CTG), NUGC3 p53 Y220C; format: cell-based; details: Homo sapiens, NUGC-3, 120 h, CellTiter-Glo, 5 days
In short: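 NClH1299 lines stably transduced with Tet-inducible p53 Y220C or R273H, plus NUGC3, were treated with compound for 5 days at 250-500 cells/well. IC50 derived from CellTiter-Glo luminescent signal after 10 min room-temperature incubation.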

[2] = target: T1, p53 Y220C mutant protein (amino acid residues 94-293) (Homo sapiens, UniProt P04637, Y220C); assay: Surface Plasmon Resonance (SPR) assay, Kd_kinetic; format: binding; details: SPR, p53 Y220C, read-out: SPR P53 Y220C KD kinetic
T1 construct: p53 Y220C mutant protein (amino acid residues 94-293)
In short: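 Kd values come from fitting sensorgrams to a 1:1 binding model. Sensorgrams were recorded on a Biacore 8K at 16 or 20 °C in pH 7.5 Tris buffer with 100 mM NaCl, 1 mM DTT, detergents and 1% DMSO.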

[3] = tested on: H1299 p53 Y220C; assay: Cell Proliferation Assay (CellTiter-Glo, CTG), H1299 p53 Y220C (NClH1299-inducible p53 Y220C); format: cell-based; details: Homo sapiens, NCI-H1299, 120 h, CellTiter-Glo, 5 days
In short: (§1)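 Tet-One inducible p53 Y220C or R273H constructs were stably introduced into NCI-H1299 by lentiviral transduction; NUGC3 was used as is. Cells (250-500 per well) were exposed to compound for 5 days, then CellTiter-Glo was added for 10 min at room temperature and IC50 was calculated from luminescence.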

[4] = target: p53 Y220C (Homo sapiens, UniProt P04637, Y220C); assay: Luciferase Reporter Assay (Luc), p53 response element, NClH1299 cells with inducible p53 Y220C; format: cell-based; details: luciferase reporter, NClH1299 inducible p53 Y220C, 6 hour; for AC50: read-out: Luc P53 Y220C AC50
In short: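 Doxycycline (0.5 ug/mL, 24 h) induces the mutant before a 6-hour compound treatment. Reporter activity is then quantified by One-Glo luminescence.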

[5] = target: T1, p53 Y220C mutant protein (amino acid residues 94-293); assay: Thermal Shift Assay (TSA), dTM; format: binding; details: for ΔTm at 100 µM: 100 uM compound, read-out: TSA P53 Y220C dTM (100 uM); for ΔTm at 10 µM: 10 uM compound
Experimental: Thermal Shift Assay (TSA) Protocol
5 μM recombinant p53 Y220C mutant protein (amino acid residues 94-293) was incubated with 10 μM or 100 μM compound for 3 hours at 20 °C in buffer containing 20 mM HEPES, pH7.4, 100 mM NaCl, 0.01% Pluronic F-127, and 1% DMSO in the presence of 400-fold diluted Sypro Orange (ThermoFisher Scientific catalog number 4461146), on a 384-well PCR plate (Applied Biosystems catalog number 4483285). The volume was 5 μL/well. The sealed plate was then loaded onto a QuantStudio 7 Flex instrument for melting temperature (TM) measurement. The temperature was increased from 30 °C to […], at a rate of 0.03 °C/second. Data were fit into a Boltzmann two-state model to determine the TM.

[6] = tested on: H1299 p53 R273H; assay: Cell Proliferation Assay (CellTiter-Glo, CTG), H1299 p53 R273H (NClH1299-inducible p53 R273H); format: cell-based; details: Homo sapiens, NCI-H1299, 120 h, CellTiter-Glo, 5 days
In short: as §1

[7] = 10 uM tool compound as positive control
[8] = NClH1299-inducible p53 Y220C cells
[9] = p53 Y220C, read-out: TSA P53 Y220C dTM
[10] = NClH1299-inducible p53 R273H cells
[11] = thermal shift, read-out: TSA P53 Y220C dTM (10 uM)

| Structure (SMILES) | IC50 ([1]; NUGC3 p53 Y220C) | Kd ([2]; kinetic KD) | IC50 ([3]; H1299 p53 Y220C) | Emax [4, 7] | AC50 [4] | ΔTm at 100 µM ([5]; thermal shift) | IC50 ([6]; H1299 p53 R273H) | IC50 ([1]; NUGC3 cells) | Kd [2] | IC50 [3, 8] | AC50 ([4]; AC50) | Emax ([4]; Emax) | ΔTm at 10 µM [5, 9] | IC50 [6, 10] | ΔTm at 10 µM [5, 11] |
| --- | --- | --- | --- | --- | --- | --- | --- | --- | --- | --- | --- | --- | --- | --- | --- |
| CNC(=O)c1ccc(NCC#Cc2nc3c(N[C@@H]4CCN(C)CC4(F)F)cccn3c2CC(F)(F)F)c(OC)c1 (single isomer, unassigned) [Example 37] | > 3000 nM | > 1000 nM | > 3000 nM | < 70% | > 3000 nM | 5 to 10 °C | ≥ 10000 nM | – | – | – | – | – | – | – | – |
| CNC(=O)c1ccc(NCC#Cc2nc3c(N[C@H]4CCN(C)CC4(F)F)cccn3c2CC(F)(F)F)c(OC)c1 (single isomer, unassigned) [Example 38] | > 3000 nM | > 1000 nM | > 3000 nM | < 70% | > 3000 nM | 5 to 10 °C | ≥ 10000 nM | – | – | – | – | – | – | – | – |
| CNC(=O)c1ccc(OC[C@H](C)O)c(NCC#Cc2cc3c(N[C@@H]4CCN(C)C[C@@H]4F)nccn3c2SC(F)(F)F)c1 (single isomer, unassigned) [Example 355] | – | – | – | – | – | – | – | < 750 nM | < 10 nM | < 750 nM | < 750 nM | > 90% | ≥ 10 °C | ≥ 10000 nM | – |
| CNC(=O)c1ccc(OC[C@@H](C)O)c(NCC#Cc2cc3c(N[C@@H]4CCN(C)C[C@@H]4F)nccn3c2SC(F)(F)F)c1 (single isomer, unassigned) [Example 356] | – | – | – | – | – | – | – | < 750 nM | < 10 nM | < 750 nM | < 750 nM | > 90% | ≥ 10 °C | ≥ 10000 nM | – |
| CNC(=O)c1ccc(NCC#Cc2nc3c(N[C@H]4CCc5ncnn5C4)cccn3c2SC(F)(F)F)c(OC)c1 (stereo in doubt) [Example 189] | > 3000 nM | 10 to 100 nM | > 3000 nM | 70 to 80% | > 3000 nM | 5 to 10 °C | ≥ 10000 nM | – | – | – | – | – | – | – | 5 to 10 °C |
| CNC(=O)c1ccc(NCC#Cc2nc3c(N[C@@H]4CCc5ncnn5C4)cccn3c2SC(F)(F)F)c(OC)c1 (stereo in doubt) [Example 190] | < 750 nM | < 10 nM | < 750 nM | > 90% | < 750 nM | ≥ 10 °C | ≥ 10000 nM | – | – | – | – | – | – | – | 5 to 10 °C |
| COc1cc(S(C)(=O)=O)ccc1NCC#Cc1nc2c(N[C@@H]3CCN(C)C[C@@H]3F)cccn2c1CC(F)(F)F [Example 1, (3S,4R)-3-fluoro-N-(2-{3-[(4-methanesulfonyl-2-methoxyphenyl)amino]prop-1-yn-1-yl}-3-(2,2,2-trifluoroethyl)imidazo[1,2-a]pyridin-8-yl)-1-methylpiperidin-4-amine] | 750 to 1500 nM | < 10 nM | < 750 nM | 70 to 80% | 750 to 1500 nM | ≥ 10 °C | 8000 to 10000 nM | – | – | – | – | – | – | – | – |
| COc1cc(S(C)(=O)=O)ccc1NCC#Cc1nc2c(NC3CCN(C)CC3)cccn2c1CC(F)(F)F [Example 2, N-(2-{3-[(4-methanesulfonyl-2-methoxyphenyl)amino]prop-1-yn-1-yl}-3-(2,2,2-trifluoroethyl)imidazo[1,2-a]pyridin-8-yl)-1-methylpiperidin-4-amine] | 1500 to 3000 nM | 10 to 100 nM | 1500 to 3000 nM | < 70% | > 3000 nM | ≥ 10 °C | 5000 to 8000 nM | – | – | – | – | – | – | – | – |
| COc1cc(S(C)(=O)=O)ccc1NCC#Cc1nc2c(NC3CCOCC3)cccn2c1CC(F)(F)F [Example 3, 2-{3-[(4-methanesulfonyl-2-methoxyphenyl)amino]prop-1-yn-1-yl}-N-(oxan-4-yl)-3-(2,2,2-trifluoroethyl)imidazo[1,2-a]pyridin-8-amine] | > 3000 nM | 10 to 100 nM | 1500 to 3000 nM | 70 to 80% | 1500 to 3000 nM | ≥ 10 °C | ≥ 10000 nM | – | – | – | – | – | – | – | – |
| CN1CC[C@@H](Nc2cccn3c(CC(F)(F)F)c(C#CCN)nc23)[C@@H](F)C1 [Example 75, (3S,4R)—N-[2-(3-aminoprop-1-yn-1-yl)-3-(2,2,2-trifluoroethyl)imidazo[1,2-a]pyridin-8-yl]-3-fluoro-1-methylpiperidin-4-amine] | > 3000 nM | – | > 3000 nM | < 70% | > 3000 nM | 1 to 5 °C | ≥ 10000 nM | – | – | – | – | – | – | – | – |
| C=C(F)C(=O)Nc1cc(NC2CCN(C)CC2)c2nc(C#CCNc3ccc(C(=O)NC)cc3OC)c(CC(F)(F)F)n2c1 [Example 90, 4-({3-[6-(2-fluoroprop-2-enamido)-8-[(1-methylpiperidin-4-yl)amino]-3-(2,2,2-trifluoroethyl)imidazo[1,2-a]pyridin-2-yl]prop-2-yn-1-yl}amino)-3-methoxy-N-methylbenzamide] | > 3000 nM | – | > 3000 nM | < 70% | > 3000 nM | 1 to 5 °C | ≥ 10000 nM | – | – | – | – | – | – | – | – |
| CNC(=O)c1ccc(NCC#Cc2nc3c(NC4CCN(C)CC4)cc(NC(=O)CCl)cn3c2CC(F)(F)F)c(OC)c1 [Example 91] | > 3000 nM | – | > 3000 nM | < 70% | > 3000 nM | ≥ 10 °C | ≥ 10000 nM | – | – | – | – | – | – | – | – |
| CNC(=O)c1ccc(NCC#Cc2nc3c(N[C@@H]4CCN(C)C[C@@H]4F)cc(F)cn3c2CC(F)(F)F)c(OC)c1 [Example 99, 4-{[3-(6-fluoro-8-{[(3S,4R)-3-fluoro-1-methylpiperidin-4-yl]amino}-3-(2,2,2-trifluoroethyl)imidazo[1,2-a]pyridin-2-yl)prop-2-yn-1-yl]amino}-3-methoxy-N-methylbenzamide, formic acid salt] | 750 to 1500 nM | – | 750 to 1500 nM | 80 to 90% | 750 to 1500 nM | ≥ 10 °C | 5000 to 8000 nM | – | – | – | – | – | – | – | – |
| COc1cc(P(C)(C)=O)ccc1NCC#Cc1cc2c(N[C@@H]3CCN(C)C[C@@H]3F)nccn2c1SC(F)(F)F [Example 185, (3S,4R)—N-[7-(3-{[4-(dimethylphosphoryl)-2-methoxyphenyl]amino}prop-1-yn-1-yl)-6-[(trifluoromethyl)sulfanyl]pyrrolo[1,2-a]pyrazin-1-yl]-3-fluoro-1-methylpiperidin-4-amine; formic acid] | < 750 nM | – | < 750 nM | 80 to 90% | < 750 nM | – | ≥ 10000 nM | – | – | – | – | – | – | – | ≥ 10 °C |
